Measurements published in patent publication US20240100088A1, “NOVEL FORMULATION FOR TREATING COPPER METABOLISM-ASSOCIATED DISEASES OR DISORDERS” (Alexion Pharmaceuticals, Inc., priority 2021, published 2024).
“Also recorded” adds a separate entry of the source.

Columns and labels:
[1] = Phase 1 study, Dose-Proportionality Extension Period: PK of plasma total Mo and PUF Mo (incl. dose-normalized, power model); type: in vivo, healthy adult participants; conditions: any of the treatments evaluated
Method: (§1) The safety and tolerability of the 2 formulations of BC-TTM in healthy participants was also assessed. BC-TTM pharmacokinetics (PK) in plasma as measured via total molybdenum (Mo) and plasma ultrafiltrate (PUF) Mo was determined.
The Dose-Proportionality Extension Period was a re-randomized, open-label, parallel group design to assess the dose-proportionality between 2.5 mg (2×1.25 mg), 5 mg (4×1.25 mg), 10 mg (8×1.25 mg), and 30 mg (24×1.25 mg) EC mini-tablet doses. The 15 mg (12×1.25 mg) dose was not repeated during the Dose-Proportionality Extension Period.
The Dose-Proportionality Extension Period was conducted following completion of the Two-way Crossover Period of the study and after an at least 14-day washout period. Participants were re-randomized as follows: • Treatment C (N=10-12): BC-TTM 2.5 mg (2×1.25 mg EC mini-tablets) • Treatment D (N=10-12): BC-TTM 5 mg (4×1.25 mg EC mini-tablets) • Treatment E (N=10-12): BC-TTM 10 mg (8×1.25 mg EC mini-tablets) • Treatment F (N=10-12): BC-TTM 30 mg (24×1.25 ma EC mini-tablets)
The dose-proportionality evaluation included data obtained from Treatment A of the Two-way Crossover Period (12×1.25 mg EC mini-tablets) to represent a dose of 15 mg,
Re-randomized treatment assignment were based on Baseline body mass index (BMI). Two strata for Baseline BM (<25, 25 to <32 kg/m^2) were used. […]

[2] = Phase 1 study: safety and tolerability (TEAEs, TESAEs, clinical laboratory); type: in vivo, healthy adult participants
Method: as §1

SMILES: C[N+](C)(C)CCO.C[N+](C)(C)CCO.[SH-].[SH-].[S]=[Mo]=[S] [BC-TTM, Bis-choline tetrathiomolybdate]
- effect of body weight or BMI on BC-TTM PK [1]: apparently not affected; also recorded: There was no apparent effect of body
- deaths or TESAEs ([2]; all treatments): No deaths or TESAEs were reported
- severity of TEAEs ([2]; all treatments, except 2 Grade 4 events after Treatment B): All TEAEs were Grade 1 or 2 in severity,
- safety profile and tolerability ([2]; single oral dose 2.5 mg to 30 mg as EC mini-tablets and as a 15 mg EC tablet): acceptable safety profile and was generally well-tolerated
